Here are results for three compounds from PMC12566046, “Arylpiperazinyl-Benzocycloheptapyrrole-Carboxamides Endowed with Dual Anticancer and Antiviral Activities” (Molecules, 2025).

For data set [1], the system named is ZIKV, strain Brazil/2016/INMI1. Kind of data set: ZIKV viral yield reduction assay on Huh-7 cells. In kind it is cell-based, Zika virus. As to conditions: Zika virus; preliminary screening (50, 5, 0.5 μM), Huh-7; read-out: ZIKV/Huh‐7 EC50. The procedure, abridged:
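Huh-7 cells infected with ZIKV at MOI 1 for 2 h at 37 °C, compounds added right after infection in duplicate at 50, 5 and 0.5 μM. Supernatants taken at 48 h and titrated by plaque assay on VERO E6 under carboxymethyl cellulose with crystal violet staining. % inhibition from PFU/mL versus DMSO-treated control; SI = CC50/EC50.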

Data set [2] deals with SK-MEL-5 (melanoma cell line). Kind of data set: NCI-60 five-dose assay. Particulars: for GI50 / CC50: Homo sapiens; for GI50: SK-MEL-5, read-out: Growth inhibition 50 (GI50); for CC50: SK-MEL-5, read-out: LC50 (molar concentration leading to 50% net cell death); for TGI (molar concentration giving total growth inhibition): SK-MEL-5.
Data set [3] has as its system MOLT-4 (leukemia cell line). As to the kind of experiment: NCI-60 five-dose assay. In kind it is cell-based, human. As to conditions: Homo sapiens, five doses (10^−4–10^−8 M), read-out: Growth inhibition 50 (GI50).
Data set [4] can be described thus: Cytotoxicity on uninfected Huh-7 cells (WST-8, crystal violet). As to conditions: human, uninfected Huh-7 cells. For orientation: Tetrazolium dyes change colour on reduction, which living cells bring about.
Data set [5] can be described thus: in vitro. As to conditions: dog.
The test system of data set [6] is NCI-60 cell line panel. As to the kind of experiment: NCI-60 single-dose assay, whole panel. Particulars: summary over the panel. Type of data set: cell-based, human. The procedure, abridged: (§1)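 Read-out is cytotoxic activity from a single-concentration test; the panel spans nine human cancer types, including leukemia, lung, colon and renal.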
Data set [7] relates to Ovarian Cancer panel. Kind of data set: NCI-60 five-dose assay, panel-level GI50 (mean graph midpoint). Particulars: Homo sapiens; Ovarian Cancer panel average; read-out: GI50 mean graph midpoint (MG_MID). In kind it is cell-based, human. Here is the method:
(§2) Due to these preliminary results, six compounds, 1, 5, 10, 11, 17, and 20, were selected for the five-dose screen NCI-programme against the same panel of tumour cell lines.
(§3) Next, a mean graph midpoint (MG_MD) was calculated for compounds 1, 5, 10, 11, 17, and 20 and reported as waterfall graphs GI50, TGI, and LC50 in the Supplementary Materials (Figures S69–S86). In Table 9, we reported the average GI50 for the nine-cancer panels, underlining both the activity and selectivity for compounds 1, 10, 11, and 20.

Data set [8] deals with CNS Cancer panel. The data set is described as above. In kind it is cell-based, human. As to conditions: Homo sapiens; CNS Cancer panel average; read-out: GI50 mean graph midpoint (MG_MID). As to the method:
as §2, §3

Data set [9] has as its system Breast Cancer panel. The description is as above. In kind it is cell-based, human. As to conditions: Homo sapiens; Breast Cancer panel average; read-out: GI50 mean graph midpoint (MG_MID). As to the method: as §2, §3
The test system of data set [10] is Prostate Cancer panel. The data set is described as above. In kind it is cell-based, human. Particulars: Homo sapiens; Prostate Cancer panel average; read-out: GI50 mean graph midpoint (MG_MID). Here is the method: as §2, §3
For data set [11], the system named is Renal Cancer panel. Described as above. Type of data set: cell-based, human. As to conditions: Homo sapiens; Renal Cancer panel average; read-out: GI50 mean graph midpoint (MG_MID). As to the method: as §2, §3
In data set [12] the test system is Non-Small Cell Lung Cancer panel. The data set is described as above. Type of data set: cell-based, human. Particulars: Homo sapiens; Non-Small Cell Lung Cancer panel average; read-out: GI50 mean graph midpoint (MG_MID). Here is the method: as §2, §3
A short description of data set [13]: in vitro. Particulars: African green monkey.
Data set [14] concerns SARS-CoV-2 VR PV10734 (strain Milano). As to the kind of experiment: microbe, parasite or virus in culture. As to conditions: Severe acute respiratory syndrome coronavirus 2; preliminary screening (50, 5, 0.5 μM), Vero TMPRSS; read-out: SARS‐CoV‐2/Vero TMPRSS EC50. In kind it is cell-based.
In data set [15] the test system is IAV strain A/PR/8/34 (H1N1). As to conditions: preliminary screening.
Data set [16] relates to COLO 205 (colon cancer cell line). Kind of data set: NCI-60 five-dose assay. Type of data set: cell-based, human. Particulars: Homo sapiens, five doses (10^−4–10^−8 M), read-out: Growth inhibition 50 (GI50).
The test system of data set [17] is K-562 (leukemia cell line). As to the kind of experiment: NCI-60 single-dose assay. Type of data set: cell-based. Particulars: Homo sapiens, K562, read-out: growth inhibition (GI%) and cytotoxicity (negative values). The source says: We first evaluated the cytotoxic activity of tricyclic-pyrrole carboxamides 1–20 using the NCI-60 cell line panel, representing nine different human cancers: leukemia, melanoma, and cancers of the lung, colon, central nervous system (CNS), ovary, kidney, prostate, and breast (the one-dose graph for compounds 1–20 is reported in Supplementary Materials, Figures S43–S62). Compounds 1, 5, 10, 11, 17, and 20 satisfied pre-determined threshold inhibition criteria in a minimum number of cell lines; therefore, they were also tested in the full five-dose assay (Figures S63–S68 in the Supplementary Materials).

Data set [18] has as its system SK-MEL-5 (melanoma cell line). As to the kind of experiment: NCI-60 single-dose assay. Type of data set: cell-based, human. As to conditions: human. In a few lines: as §1
For data set [19], the system named is CCRF-CEM (leukemia cell line). Kind of data set: NCI-60 five-dose assay. In kind it is cell-based, human. As to conditions: Homo sapiens, five doses (10^−4–10^−8 M), read-out: Growth inhibition 50 (GI50).
The test system of data set [20] is RPMI-8226 (leukemia cell line). As to the kind of experiment: NCI-60 five-dose assay. Type of data set: cell-based, human. As to conditions: Homo sapiens, five doses (10^−4–10^−8 M), read-out: Growth inhibition 50 (GI50).

The term GI50 denotes the concentration that inhibits growth by half. A word on the inhibition: it is the drop in the measured response relative to a control, in per cent. Consider `O=C(NCCCN1CCN(Cc2ccccc2)CC1)c1c(Cl)[nH]c2c1CCCc1ccccc1-2` [Compound 20, N-(3-(4-Benzylpiperazin-1-yl)propyl)-2-chloro-1,4,5,6-tetrahydrobenzo[6,7]cyclohepta[1,2-b]pyrrole-3-carboxamide], for which the EC50 amounted to 4.74 µM in data set [1] and 17.7 µM in data set [14]. Moreover, the GI50 stood at 1.79 µM in data set [2]; 4.78 µM in data set [3]; 12 µM in [7]; 12 µM in data set [8]; 6.92 µM in data set [9]; 9.55 µM in data set [10]. Besides, the GI50 was found to be 9.12 µM in data set [11]; 10.5 µM in data set [12]; 1.96 µM in [16]; 10.7 µM in [19]; 3.69 µM in [20]. In addition, the CC50 in data set [2] was 6.46 µM; in data set [5], 6.12 µM. For the same compound, the “TGI (molar concentration giving total growth inhibition)” value in data set [2] worked out at 3.39 µM. The CC50 at 48 h in data set [4] was 6.23 µM. Besides, the “growth inhibition (GI%) reached against cancer cell lines of the NCI-60 panel” value (“growth inhibition (GI%) reached” below) in data set [6] is reported as over 90%. In [13], this compound displayed a CC50 at 24 h of 15.4 µM. Moreover, the “IAV/MDCK SI” value in data set [15] is 0.35. Besides, the inhibition at 10 µM in data set [17] is under 60%. Also, in data set [18], the “growth inhibition (GI%) and cytotoxicity (negative values)” value (shortened to “growth inhibition (GI%) and cytotoxicity”) was −89.68%.

As to `O=C(NCCCN1CCN(c2ccccc2)CC1)c1cc2c([nH]1)-c1ccccc1CCC2` [Compound 10, N-(3-(4-Phenylpiperazin-1-yl)propyl)-1,4,5,6-tetrahydrobenzo[6,7]cyclohepta[1,2-b]pyrrole-2-carboxamide], the EC50 in data set [1] was determined as 3.59 µM. The GI50 in [2] was found to be 2.71 µM; in data set [3] it was 4.97 µM; in data set [7], 12.3 µM; in data set [8] it was 17 µM; in data set [9], 8.32 µM; in [10] it was 6.61 µM. Moreover, the GI50 amounted to 8.71 µM in [11]; 9.33 µM in data set [12]; 1.92 µM in data set [16]; 8.21 µM in data set [19]; 3 µM in data set [20]. In data set [2], the “TGI (molar concentration giving total growth inhibition)” value is 9.77 µM. The compound also gave a CC50 at 48 h in data set [4] of 12.4 µM. In data set [5], this compound yielded a CC50 of 67.8 µM. Further, in [6], the “growth inhibition (GI%) reached” value is on record as over 90%. In data set [13], this compound had a CC50 at 24 h of 55.7 µM. In addition, the inhibition at 10 µM in [17] stood at 99.4%. In data set [18], the “growth inhibition (GI%) and cytotoxicity” value is listed as −72.58%.

As for `CCN1CCC[C@H]1CNC(=O)c1[nH]c2c(c1Cl)CCCc1ccccc1-2` [Compound 1, (S)-3-Chloro-N-(1-ethyl-2-pyrrolidinylmethyl)-5,6-dihydro-4H-benzo[6,7]cyclohepta[1,2-b]pyrrol-2-carboxamide], the EC50 is 2.07 µM in data set [1] and 9.61 µM in data set [14]. Moreover, the GI50 was 1.68 µM in [2]; 3.57 µM in data set [3]; 2.29 µM in data set [7]; 4.79 µM in [8]; 4.47 µM in data set [9]; 8.13 µM in [10]. The 50% growth inhibitory concentration (GI50) in data set [11] is 5.25 µM; in data set [12] it was 7.24 µM; in [16] it was 1.8 µM; in [19], 5.96 µM; in data set [20], 2.29 µM. For the same compound, the CC50 in [2] turned out to be 5.62 µM; in data set [5] it was 1.75 µM. The “TGI (molar concentration giving total growth inhibition)” value in [2] was 3.09 µM. The compound also had a CC50 at 48 h in data set [4] of 3.88 µM. In addition, the “growth inhibition (GI%) reached” value in data set [6] is over 90%. In [13], this compound registered a CC50 at 24 h of 14.7 µM. In data set [15], the “IAV/MDCK SI” value stood at 0.10. Moreover, in data set [17], the inhibition at 10 µM was 94%. Moreover, the “growth inhibition (GI%) and cytotoxicity” value in [18] is recorded as −88.03%.
